The target of data set [1] is T1, eucaryotic NAD cyclases of this invention (example: Aplysia californica NAD cyclase) (Aplysia californica, UniProt P29241).
T1 sequence (P29241 25-282): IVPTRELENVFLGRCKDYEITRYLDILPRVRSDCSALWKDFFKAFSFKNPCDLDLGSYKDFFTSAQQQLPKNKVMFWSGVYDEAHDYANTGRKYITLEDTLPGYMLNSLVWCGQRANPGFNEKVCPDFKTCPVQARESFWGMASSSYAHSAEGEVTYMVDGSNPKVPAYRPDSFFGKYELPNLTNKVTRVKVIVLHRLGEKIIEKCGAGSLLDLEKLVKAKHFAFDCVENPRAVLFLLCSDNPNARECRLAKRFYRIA
The data set can be described thus: Resistance of NAD cyclase to inhibitors of eucaryotic NADases. The note with it: for inhibition of NAD cyclase by inhibitor: concentration not given. The data set is classed as biochemical.

Data set [2] addresses T2, Aplysia californica NAD cyclase (ovotestis NADase), purified, wild type (Aplysia californica, UniProt P29241).
T2 construct: from tissue; host or cells: ovotestis (Aplysia)
T2 sequence (P29241 25-282): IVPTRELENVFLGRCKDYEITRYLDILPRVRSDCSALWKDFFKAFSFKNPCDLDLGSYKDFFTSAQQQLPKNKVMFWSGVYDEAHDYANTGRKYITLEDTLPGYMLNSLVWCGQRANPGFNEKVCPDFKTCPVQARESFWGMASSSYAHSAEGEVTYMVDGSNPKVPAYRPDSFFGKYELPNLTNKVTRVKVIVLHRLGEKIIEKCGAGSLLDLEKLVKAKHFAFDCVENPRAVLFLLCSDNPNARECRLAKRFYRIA
The data set can be described thus: NAD cyclase velocity vs. NAD concentration ([14C]-nicotinamide release). The data set is classed as biochemical. The protocol: (§1) Referring to FIG. 4, various concentrations (0.05 to 5.0 mM) of [carbonyl-^14 C]NAD (specific activity=1.6 nCi/nmol) and 5×10^-9 M ovotestis NADase were incubated in 300 mM potassium phosphate buffer (pH 7.0) at 30° C. The amount of NAD cleaved during the incubation period was determined by measuring the amount of [^14 C]-nicotinamide produced. The data was fitted to the equation f=a+b*exp(-c*x) using a nonlinear curve fitting program (SigmaPlot, version 4.0). The estimated Km of the NAD Cyclase is 0.7 mM and the Vmax is approximately 32 nmoles/minute/35 ng enzyme. This corresponds to a turnover rate of about 27,000 moles NAD/minute/mole of NAD Cyclase at 30° C.

In data set [3] the test system is rat liver NAD glycohydrolase. The note with it: Moss et al., J. Biol. Chem. 257:5755-5759, 1982; cited from earlier work.
Substrate in data set [4]: NC(=O)c1ccc[n+]([C@@H]2O[C@H](COP(=O)([O-])OP(=O)(O)OC[C@H]3O[C@@H](n4cnc5c(N)ncnc54)[C@H](O)[C@@H]3O)[C@@H](O)[C@H]2O)c1
Put plainly: NAD cyclase velocity vs. NAD concentration ([14C]-nicotinamide release). The note with it: other: 0.05 to 5.0 mM [carbonyl-14C]NAD, 5x10^-9 M enzyme, 300 mM potassium phosphate pH 7.0, 30° C., estimated by nonlinear curve fit. The data set is classed as biochemical, Aplysia californica. The method, then:
as §1

As to `CC(=O)c1ccc[n+]([C@@H]2O[C@H](COP(=O)([O-])OP(=O)(O)OC[C@H]3O[C@@H](n4cnc5c(N)ncnc54)[C@H](O)[C@@H]3O)[C@@H](O)[C@H]2O)c1` [3-acetylpyridine adenine dinucleotide], the “inhibition of NAD cyclase by inhibitor” value in data set [1] is given as “resistant”.
For orientation: Km means the concentration of substrate that gives half-maximal velocity. As to `NC(=O)c1ccc[n+]([C@@H]2O[C@H](COP(=O)([O-])OP(=O)(O)OC[C@H]3O[C@@H](n4cnc5c(N)ncnc54)[C@H](O)[C@@H]3O)[C@@H](O)[C@H]2O)c1` [NAD, nicotinamide adenine dinucleotide], the Vmax result in data set [2] (300 mM potassium phosphate pH 7.0, 30° C.) is on record as “approximately 32 nmoles/minute/35 ng enzyme”. In addition, the turnover rate result in data set [2] (at 30° C., corresponds to Vmax) is on record as “about 27,000 moles NAD/minute/mole of NAD Cyclase”. Further, the Km in data set [3] is about 18 µM.
For `NNC(=O)c1ccncc1` [isonicotinic acid hydrazide], the “inhibition of NAD cyclase by inhibitor” value in data set [1] is “resistant”.
For `O[C@H](CS)[C@H](O)CS` (racemic) [DTT, dithiothreitol], the “inhibition of NAD cyclase by DTT” value in data set [1] (1 mM DTT) is listed as “resistant”.

B1: Aplysia californica NAD cyclase (ovotestis NADase), purified, wild type (Aplysia californica) (protein)
chain: IVPTRELENVFLGRCKDYEITRYLDILPRVRSDCSALWKDFFKAFSFKNPCDLDLGSYKDFFTSAQQQLPKNKVMFWSGVYDEAHDYANTGRKYITLEDTLPGYMLNSLVWCGQRANPGFNEKVCPDFKTCPVQARESFWGMASSSYAHSAEGEVTYMVDGSNPKVPAYRPDSFFGKYELPNLTNKVTRVKVIVLHRLGEKIIEKCGAGSLLDLEKLVKAKHFAFDCVENPRAVLFLLCSDNPNARECRLAKRFYRIA
notes: 5×10^-9 M ovotestis NADase were incubated in 300 mM potassium phosphate buffer; from tissue; host or cells: ovotestis (Aplysia)
Turning to B1, the Km in data set [4] is 700 µM.

Source of the values: patent publication US5393667A, “Eucaryotic NAD cyclases” (priority 1993, dated 1995).
